Results from the kinase profiling compilation of Christmann-Franck et al. (2016).
Each block holds one compound with its values, some of them ahead of it.

Assays:
Assay in all cases: radiometric filter-binding kinase assay
[1] = tested on: AKT2 (human), P31751 [S474D]
CAMKK2 (human) = CAMKK2 (human) (UniProt Q96RR4)
CDK2 CCNA2 (human) = CDK2 CCNA2 (human) (UniProt P20248+P24941)
CHEK1 (human) = CHEK1 (human) (UniProt O14757)
CSNK2A1 (human) = CSNK2A1 (human) (UniProt P68400)
CaMK1 (human) = CaMK1 (human) (UniProt Q14012)
DYRK1A (human) = DYRK1A (human) (UniProt Q13627)
EPHB3 (human) = EPHB3 (human) (UniProt P54753)
IGF1R (human) = IGF1R (human) (UniProt P08069)
INSR (human) = INSR (human) (UniProt P06213)
INSRR (human) = INSRR (human) (UniProt P14616)
LCK (mouse) = details: accession and sequence are those of the human protein
MAP2K1 (human) = MAP2K1 (human) (UniProt Q02750)
MAPK13 (human) = MAPK13 (human) (UniProt O15264)
MARK3 (human) = MARK3 (human) (UniProt P27448)
MKNK1 (human) = MKNK1 (human) (UniProt Q9BUB5)
MST4 (human) = MST4 (human) (UniProt Q9P289)
PAK4 (human) = PAK4 (human) (UniProt O96013)
PHKG1 (human) = PHKG1 (human) (UniProt Q16816)
PIM2 (human) = PIM2 (human) (UniProt Q9P1W9)
PRKAA1 or PRKAA2 (rat) = details: accession and sequence are those of the human protein
PRKACA (human) = PRKACA (human) (UniProt P17612)
PRKCZ (human) = PRKCZ (human) (UniProt Q05513)
SRC (human) = SRC (human) (UniProt P12931)
SYK (human) = SYK (human) (UniProt P43405)
YES1 (human) = YES1 (human) (UniProt P07947)
Sequence of YES1 (human) (P07947 whole entry, looked up): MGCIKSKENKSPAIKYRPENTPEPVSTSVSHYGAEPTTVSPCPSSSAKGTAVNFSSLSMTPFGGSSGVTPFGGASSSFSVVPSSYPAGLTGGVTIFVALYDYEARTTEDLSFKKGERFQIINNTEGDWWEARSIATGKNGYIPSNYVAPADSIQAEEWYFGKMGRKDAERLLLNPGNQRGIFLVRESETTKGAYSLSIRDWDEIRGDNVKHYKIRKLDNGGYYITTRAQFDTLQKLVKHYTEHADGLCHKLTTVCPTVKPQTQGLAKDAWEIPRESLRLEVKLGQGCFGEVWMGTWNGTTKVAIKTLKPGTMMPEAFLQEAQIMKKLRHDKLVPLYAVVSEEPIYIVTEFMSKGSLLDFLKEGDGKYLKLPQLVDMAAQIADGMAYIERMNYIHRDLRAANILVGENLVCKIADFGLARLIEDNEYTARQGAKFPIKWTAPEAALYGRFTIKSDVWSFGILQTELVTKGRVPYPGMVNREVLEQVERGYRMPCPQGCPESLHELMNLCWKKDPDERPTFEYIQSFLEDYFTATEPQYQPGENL

Sequence of MARK3 (human) (P27448 whole entry, looked up): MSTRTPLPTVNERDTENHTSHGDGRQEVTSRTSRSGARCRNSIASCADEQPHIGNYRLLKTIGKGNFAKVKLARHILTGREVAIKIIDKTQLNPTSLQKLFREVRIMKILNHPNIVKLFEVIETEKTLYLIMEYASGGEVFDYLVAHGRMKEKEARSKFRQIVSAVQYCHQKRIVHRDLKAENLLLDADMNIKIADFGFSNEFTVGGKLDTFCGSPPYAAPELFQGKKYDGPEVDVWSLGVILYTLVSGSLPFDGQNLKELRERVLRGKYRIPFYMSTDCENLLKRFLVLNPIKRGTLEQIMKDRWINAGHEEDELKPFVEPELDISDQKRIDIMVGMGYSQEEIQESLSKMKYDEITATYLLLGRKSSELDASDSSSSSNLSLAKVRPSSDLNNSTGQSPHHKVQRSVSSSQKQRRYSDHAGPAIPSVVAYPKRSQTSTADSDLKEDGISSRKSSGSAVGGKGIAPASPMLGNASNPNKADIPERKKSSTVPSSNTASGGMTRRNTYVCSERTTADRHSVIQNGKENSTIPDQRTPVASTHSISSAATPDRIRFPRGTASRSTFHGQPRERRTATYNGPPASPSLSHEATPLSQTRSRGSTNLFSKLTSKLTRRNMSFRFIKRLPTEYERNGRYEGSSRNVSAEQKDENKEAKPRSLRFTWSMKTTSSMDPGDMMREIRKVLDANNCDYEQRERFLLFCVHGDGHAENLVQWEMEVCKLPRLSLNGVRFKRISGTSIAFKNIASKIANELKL
Sequence of MAPK13 (human) (O15264 whole entry, looked up): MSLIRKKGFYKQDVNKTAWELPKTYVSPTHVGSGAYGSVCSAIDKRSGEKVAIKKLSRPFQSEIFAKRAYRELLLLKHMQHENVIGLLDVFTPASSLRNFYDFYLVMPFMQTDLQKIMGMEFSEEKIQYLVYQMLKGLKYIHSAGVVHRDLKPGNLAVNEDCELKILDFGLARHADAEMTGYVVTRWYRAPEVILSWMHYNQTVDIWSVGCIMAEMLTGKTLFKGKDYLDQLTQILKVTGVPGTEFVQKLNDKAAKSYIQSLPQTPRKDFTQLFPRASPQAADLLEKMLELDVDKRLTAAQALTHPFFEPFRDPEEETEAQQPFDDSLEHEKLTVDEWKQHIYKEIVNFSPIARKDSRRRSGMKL
Sequence of AKT2 (human), P31751 [S474D] (P31751 whole entry S474D, looked up): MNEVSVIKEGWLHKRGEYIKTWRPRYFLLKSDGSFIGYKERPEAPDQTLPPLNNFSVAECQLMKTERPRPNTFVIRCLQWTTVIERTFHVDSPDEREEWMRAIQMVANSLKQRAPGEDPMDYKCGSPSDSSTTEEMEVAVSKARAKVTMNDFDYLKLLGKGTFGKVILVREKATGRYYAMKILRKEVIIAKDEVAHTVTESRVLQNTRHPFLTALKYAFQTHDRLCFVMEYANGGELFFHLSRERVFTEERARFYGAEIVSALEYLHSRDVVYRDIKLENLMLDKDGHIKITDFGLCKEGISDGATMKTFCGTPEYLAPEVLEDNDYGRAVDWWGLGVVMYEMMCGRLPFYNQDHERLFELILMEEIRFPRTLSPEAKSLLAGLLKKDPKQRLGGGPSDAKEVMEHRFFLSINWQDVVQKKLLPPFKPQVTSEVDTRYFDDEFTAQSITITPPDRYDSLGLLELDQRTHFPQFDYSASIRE
Sequence of CHEK1 (human) (O14757 whole entry, looked up): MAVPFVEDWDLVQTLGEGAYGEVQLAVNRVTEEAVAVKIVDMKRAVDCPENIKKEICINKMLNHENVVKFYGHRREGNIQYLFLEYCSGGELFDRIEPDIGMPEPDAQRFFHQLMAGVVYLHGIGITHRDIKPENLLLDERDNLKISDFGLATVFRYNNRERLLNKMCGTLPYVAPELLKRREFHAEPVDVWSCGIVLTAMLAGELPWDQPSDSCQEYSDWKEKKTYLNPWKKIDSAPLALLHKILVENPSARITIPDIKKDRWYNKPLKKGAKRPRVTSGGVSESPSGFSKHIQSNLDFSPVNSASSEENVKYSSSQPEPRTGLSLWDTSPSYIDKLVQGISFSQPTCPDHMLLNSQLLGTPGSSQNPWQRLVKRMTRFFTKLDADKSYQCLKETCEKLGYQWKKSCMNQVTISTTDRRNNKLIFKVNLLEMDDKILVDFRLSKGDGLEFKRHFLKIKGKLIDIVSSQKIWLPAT
Sequence of MAP2K1 (human) (Q02750 whole entry, looked up): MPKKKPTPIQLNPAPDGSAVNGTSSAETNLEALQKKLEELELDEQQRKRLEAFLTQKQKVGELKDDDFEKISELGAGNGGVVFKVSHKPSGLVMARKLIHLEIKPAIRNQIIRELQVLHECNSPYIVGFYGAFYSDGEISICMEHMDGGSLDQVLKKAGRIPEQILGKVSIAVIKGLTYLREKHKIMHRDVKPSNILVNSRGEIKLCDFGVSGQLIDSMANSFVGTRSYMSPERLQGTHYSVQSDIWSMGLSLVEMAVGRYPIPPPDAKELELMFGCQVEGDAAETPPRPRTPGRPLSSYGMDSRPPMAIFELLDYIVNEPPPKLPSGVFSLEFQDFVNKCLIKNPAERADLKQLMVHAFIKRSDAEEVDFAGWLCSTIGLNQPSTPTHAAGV
Sequence of PAK4 (human) (O96013 whole entry, looked up): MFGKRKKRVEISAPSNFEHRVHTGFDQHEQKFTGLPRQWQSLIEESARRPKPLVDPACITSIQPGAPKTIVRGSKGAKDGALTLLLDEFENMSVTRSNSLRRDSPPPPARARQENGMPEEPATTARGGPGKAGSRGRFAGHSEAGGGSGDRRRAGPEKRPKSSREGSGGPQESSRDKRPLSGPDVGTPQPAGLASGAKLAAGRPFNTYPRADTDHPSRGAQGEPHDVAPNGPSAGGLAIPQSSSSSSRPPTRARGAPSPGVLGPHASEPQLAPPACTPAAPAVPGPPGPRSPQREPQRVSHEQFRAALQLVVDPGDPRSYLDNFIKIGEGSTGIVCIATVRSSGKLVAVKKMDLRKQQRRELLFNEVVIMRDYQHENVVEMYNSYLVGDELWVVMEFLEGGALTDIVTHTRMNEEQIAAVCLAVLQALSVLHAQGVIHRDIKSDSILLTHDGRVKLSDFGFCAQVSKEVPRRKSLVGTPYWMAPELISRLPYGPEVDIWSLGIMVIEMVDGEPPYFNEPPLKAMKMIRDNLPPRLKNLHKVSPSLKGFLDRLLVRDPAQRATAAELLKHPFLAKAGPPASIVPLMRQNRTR
Sequence of EPHB3 (human) (P54753 whole entry, looked up): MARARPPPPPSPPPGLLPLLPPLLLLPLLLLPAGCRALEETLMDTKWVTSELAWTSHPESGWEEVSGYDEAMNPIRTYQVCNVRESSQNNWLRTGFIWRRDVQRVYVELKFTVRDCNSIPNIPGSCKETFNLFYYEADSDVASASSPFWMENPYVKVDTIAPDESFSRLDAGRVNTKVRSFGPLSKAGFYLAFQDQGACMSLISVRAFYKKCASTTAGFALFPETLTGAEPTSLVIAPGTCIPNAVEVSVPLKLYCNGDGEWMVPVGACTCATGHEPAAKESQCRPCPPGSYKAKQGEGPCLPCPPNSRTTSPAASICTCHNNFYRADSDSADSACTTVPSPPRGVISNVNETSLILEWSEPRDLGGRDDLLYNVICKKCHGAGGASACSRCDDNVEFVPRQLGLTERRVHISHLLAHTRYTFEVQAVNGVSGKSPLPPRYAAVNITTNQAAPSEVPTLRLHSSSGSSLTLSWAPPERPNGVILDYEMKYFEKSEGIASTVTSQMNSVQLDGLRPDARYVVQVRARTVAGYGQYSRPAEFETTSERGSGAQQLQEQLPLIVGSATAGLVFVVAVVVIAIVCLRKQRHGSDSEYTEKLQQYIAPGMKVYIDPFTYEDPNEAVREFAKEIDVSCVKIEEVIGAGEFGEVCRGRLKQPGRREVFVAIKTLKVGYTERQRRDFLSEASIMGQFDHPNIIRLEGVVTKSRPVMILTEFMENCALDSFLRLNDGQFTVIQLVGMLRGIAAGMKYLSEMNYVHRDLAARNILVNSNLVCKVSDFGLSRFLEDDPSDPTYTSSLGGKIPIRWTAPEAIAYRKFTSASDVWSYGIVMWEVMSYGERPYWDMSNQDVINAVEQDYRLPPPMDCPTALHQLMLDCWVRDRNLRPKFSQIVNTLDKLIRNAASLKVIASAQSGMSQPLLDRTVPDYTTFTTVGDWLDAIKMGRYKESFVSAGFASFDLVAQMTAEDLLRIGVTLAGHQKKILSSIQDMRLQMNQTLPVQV
Sequence of MST4 (human) (Q9P289 whole entry, looked up): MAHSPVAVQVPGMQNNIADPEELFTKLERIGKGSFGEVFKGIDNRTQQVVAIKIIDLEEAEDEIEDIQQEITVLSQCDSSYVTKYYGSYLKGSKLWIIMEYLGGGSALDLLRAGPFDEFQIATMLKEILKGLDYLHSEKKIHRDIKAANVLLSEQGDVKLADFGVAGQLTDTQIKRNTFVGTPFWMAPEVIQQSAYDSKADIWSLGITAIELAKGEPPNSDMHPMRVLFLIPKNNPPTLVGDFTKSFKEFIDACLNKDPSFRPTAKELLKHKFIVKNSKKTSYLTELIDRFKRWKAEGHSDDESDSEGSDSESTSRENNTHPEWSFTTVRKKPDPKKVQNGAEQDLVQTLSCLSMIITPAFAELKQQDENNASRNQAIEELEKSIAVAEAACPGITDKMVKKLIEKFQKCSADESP

residual activity ([1]; compound 0.001 µM): 79%
residual activity ([1]; compound 0.01 µM): 82%
residual activity (CAMKK2 (human); compound 0.001 µM): 101%
residual activity (CAMKK2 (human); compound 0.01 µM): 90%
residual activity (CAMKK2 (human); compound 0.1 µM): 60%
residual activity (CDK2 CCNA2 (human); compound 0.001 µM): 102%
residual activity (CDK2 CCNA2 (human); compound 0.01 µM): 87%
residual activity (CDK2 CCNA2 (human); compound 0.1 µM): 85%
residual activity (CHEK1 (human); compound 0.001 µM): 89%
residual activity (CHEK1 (human); compound 0.1 µM): 21%
residual activity (CSNK2A1 (human); compound 0.001 µM): 92%
residual activity (CSNK2A1 (human); compound 0.01 µM): 91%
residual activity (CSNK2A1 (human); compound 0.1 µM): 86%
residual activity (CaMK1 (human); compound 0.001 µM): 104%
residual activity (CaMK1 (human); compound 0.01 µM): 116%
residual activity (CaMK1 (human); compound 0.1 µM): 103%
residual activity (DYRK1A (human); compound 0.001 µM): 110%
residual activity (DYRK1A (human); compound 0.01 µM): 91%
residual activity (DYRK1A (human); compound 0.1 µM): 67%
residual activity (EPHB3 (human); compound 0.001 µM): 114%
residual activity (EPHB3 (human); compound 0.01 µM): 99%
residual activity (EPHB3 (human); compound 0.1 µM): 101%
residual activity (IGF1R (human); compound 0.1 µM): 94%
residual activity (INSR (human); compound 0.01 µM): 102%
residual activity (INSR (human); compound 0.1 µM): 110%
residual activity (INSRR (human); compound 0.001 µM): 91%
residual activity (INSRR (human); compound 0.01 µM): 75%
residual activity (INSRR (human); compound 0.1 µM): 47%
residual activity (LCK (mouse); compound 0.001 µM): 97%
residual activity (LCK (mouse); compound 0.01 µM): 95%
residual activity (LCK (mouse); compound 0.1 µM): 64%
residual activity (MAP2K1 (human); compound 0.001 µM): 87%
residual activity (MAP2K1 (human); compound 0.01 µM): 33%
residual activity (MAP2K1 (human); compound 0.1 µM): 7%
residual activity (MAPK13 (human); compound 0.001 µM): 96%
residual activity (MAPK13 (human); compound 0.01 µM): 89%
residual activity (MAPK13 (human); compound 0.1 µM): 86%
residual activity (MARK3 (human); compound 0.001 µM): 93%
residual activity (MARK3 (human); compound 0.01 µM): 61%
residual activity (MARK3 (human); compound 0.1 µM): 14%
residual activity (MKNK1 (human); compound 0.001 µM): 92%
residual activity (MKNK1 (human); compound 0.01 µM): 87%
residual activity (MKNK1 (human); compound 0.1 µM): 82%
residual activity (MST4 (human); compound 0.001 µM): 87%
residual activity (MST4 (human); compound 0.01 µM): 80%
residual activity (PAK4 (human); compound 0.001 µM): 80%
residual activity (PAK4 (human); compound 0.01 µM): 85%
residual activity (PAK4 (human); compound 0.1 µM): 76%
residual activity (PHKG1 (human); compound 0.001 µM): 97%
residual activity (PHKG1 (human); compound 0.01 µM): 66%
residual activity (PHKG1 (human); compound 0.1 µM): 18%
residual activity (PIM2 (human); compound 0.01 µM): 92%
residual activity (PIM2 (human); compound 0.1 µM): 65%
residual activity (PRKAA1 or PRKAA2 (rat); compound 0.001 µM): 62%
residual activity (PRKAA1 or PRKAA2 (rat); compound 0.01 µM): 25%
residual activity (PRKAA1 or PRKAA2 (rat); compound 0.1 µM): 7%
residual activity (PRKACA (human); compound 0.001 µM): 92%
residual activity (PRKACA (human); compound 0.01 µM): 87%
residual activity (PRKACA (human); compound 0.1 µM): 81%
residual activity (PRKCZ (human); compound 0.001 µM): 78%
residual activity (PRKCZ (human); compound 0.01 µM): 84%
residual activity (PRKCZ (human); compound 0.1 µM): 83%
residual activity (SRC (human); compound 0.001 µM): 84%
residual activity (SRC (human); compound 0.01 µM): 79%
residual activity (SRC (human); compound 0.1 µM): 71%
residual activity (SYK (human); compound 0.001 µM): 100%
residual activity (SYK (human); compound 0.01 µM): 104%
residual activity (SYK (human); compound 0.1 µM): 97%
residual activity (YES1 (human); compound 0.001 µM): 77%
residual activity (YES1 (human); compound 0.01 µM): 60%
residual activity (YES1 (human); compound 0.1 µM): 42%
Compound: C/C(=C1/C(=O)Nc2ccc(NC(N)=O)cc21)c1ccc[nH]1

residual activity ([1]; compound 1.0 µM): 88%
residual activity ([1]; compound 10.0 µM): 61%
residual activity (CAMKK2 (human); compound 1.0 µM): 94%
residual activity (CAMKK2 (human); compound 10.0 µM): 78%
residual activity (CDK2 CCNA2 (human); compound 1.0 µM): 58%
residual activity (CDK2 CCNA2 (human); compound 10.0 µM): 14%
residual activity (CHEK1 (human); compound 1.0 µM): 102%
residual activity (CHEK1 (human); compound 10.0 µM): 88%
residual activity (CSNK2A1 (human); compound 1.0 µM): 95%
residual activity (CSNK2A1 (human); compound 10.0 µM): 70%
residual activity (CaMK1 (human); compound 1.0 µM): 54%
residual activity (CaMK1 (human); compound 10.0 µM): 13%
residual activity (DYRK1A (human); compound 1.0 µM): 99%
residual activity (DYRK1A (human); compound 10.0 µM): 82%
residual activity (EPHB3 (human); compound 1.0 µM): 89%
residual activity (EPHB3 (human); compound 10.0 µM): 93%
residual activity (IGF1R (human); compound 1.0 µM): 80%
residual activity (INSR (human); compound 1.0 µM): 94%
residual activity (INSR (human); compound 10.0 µM): 96%
residual activity (INSRR (human); compound 1.0 µM): 78%
residual activity (INSRR (human); compound 10.0 µM): 45%
residual activity (LCK (mouse); compound 1.0 µM): 88%
residual activity (LCK (mouse); compound 10.0 µM): 74%
residual activity (MAP2K1 (human); compound 1.0 µM): 79%
residual activity (MAP2K1 (human); compound 10.0 µM): 62%
residual activity (MAPK13 (human); compound 1.0 µM): 88%
residual activity (MAPK13 (human); compound 10.0 µM): 73%
residual activity (MARK3 (human); compound 1.0 µM): 100%
residual activity (MARK3 (human); compound 10.0 µM): 94%
residual activity (MKNK1 (human); compound 1.0 µM): 97%
residual activity (MKNK1 (human); compound 10.0 µM): 74%
residual activity (MST4 (human); compound 1.0 µM): 105%
residual activity (MST4 (human); compound 10.0 µM): 85%
residual activity (PAK4 (human); compound 1.0 µM): 89%
residual activity (PAK4 (human); compound 10.0 µM): 54%
residual activity (PHKG1 (human); compound 1.0 µM): 70%
residual activity (PHKG1 (human); compound 10.0 µM): 21%
residual activity (PIM2 (human); compound 10.0 µM): 40%
residual activity (PRKAA1 or PRKAA2 (rat); compound 1.0 µM): 87%
residual activity (PRKAA1 or PRKAA2 (rat); compound 10.0 µM): 54%
residual activity (PRKACA (human); compound 1.0 µM): 79%
residual activity (PRKACA (human); compound 10.0 µM): 65%
residual activity (PRKCZ (human); compound 10.0 µM): 10%
residual activity (SRC (human); compound 1.0 µM): 91%
residual activity (SRC (human); compound 10.0 µM): 83%
residual activity (SYK (human); compound 1.0 µM): 106%
residual activity (SYK (human); compound 10.0 µM): 91%
residual activity (YES1 (human); compound 1.0 µM): 94%
residual activity (YES1 (human); compound 10.0 µM): 49%
Compound: O=C1Nc2nc(-c3c(O)cccc3OCC3CC3)cc(C3CCCNC3)c2CO1 (stereo not given)
